These results are taken from US8017612B2, “Piperazine compound and use thereof as a HCV polymerase inhibitor” (priority 2006, dated 2011).

Structures can show the parent of a compound that is named as a salt.

The target in test [1] is T1, HCV polymerase (NS5B) type 1b (Hepatitis C virus genotype 1b, UniProt P26663).
T1 construct: a region encoding NS5B (J Virol 1991 March, 65(3), 1105-13, 544 amino acids after deletion of 47 amino acids on the C-terminal); 6xHis (C); made in house; host or cells: Escherichia coli
Put plainly: Assay of enzyme (HCV polymerase) inhibitory activity, type 1b enzyme. The test is classed as biochemical, HCV BK strain (type 1b). As to conditions: HCV polymerase inhibitory activity (IC50), 1b, type 1b enzyme 0.5 μg/ml, 25° C., 60 min. An outline of the steps: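 IC50 derived from [3H]UTP incorporation into TCA-insoluble RNA, compared with and without test compound. Reaction (25 °C, 60 min, Tris pH 7.5, 5 mM MgCl2): E. coli-expressed 1b NS5B Δ47 with His tag at 0.5 μg/ml, 5 μg/ml run-off substrate RNA, ATP/GTP/CTP 50 μM, UTP 2 μM.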

Test [2] addresses T2, HCV polymerase (NS5B) type 1a (Hepatitis C virus genotype 1a, UniProt P26664).
T2 construct: made in house; host or cells: Escherichia coli (by the 'similar method' of the 1b enzyme)
In words: Assay of enzyme (HCV polymerase) inhibitory activity, type 1a enzyme. The test is classed as biochemical, HCV type 1a (cloned from the blood of patients). As to conditions: HCV polymerase inhibitory activity (IC50), 1a, type 1a enzyme 1.5 μg/ml, 25° C., 60 min. An outline of the steps:
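Reactions ran 60 min at 25° C in 20 mM Tris-HCl pH 7.5, 5 mM MgCl2, 50 mM NaCl, holding genotype 1a NS5B (1.5 μg/ml, Δ47 C-terminus, 6His), substrate RNA 5 μg/ml, UTP 2 μM with tritiated UTP and other NTPs 50 μM. IC50 derived from incorporated radiolabel in filter-trapped RNA relative to uninhibited reaction.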

The term IC50 denotes the midpoint of a concentration-inhibition curve. For `CC(C)c1ccc(S(=O)(=O)N2CCN(C(=O)C(C)(C)O)CC2C(=O)NCc2ccc(C(F)(F)F)cc2)cc1` (stereo not shown) [Example 56, 4-(2-hydroxy-2-methyl-propionyl)-1-(4-isopropyl-benzenesulfonyl)-piperazine-2-carboxylic acid 4-trifluoromethyl-benzylamide], the IC50 in test [1] and in test [2] was more than 1000 nM in each case.

As for `COCC(=O)N1CCN(S(=O)(=O)c2ccc(C(C)C)cc2)C(C(=O)NCc2ccc(C(F)(F)F)cc2)C1` (stereo not shown) [Example 57, 1-(4-isopropyl-benzenesulfonyl)-4-(2-methoxy-acetyl)-piperazine-2-carboxylic acid 4-trifluoromethyl-benzylamide], the IC50 in test [1] and in test [2] was more than 1000 nM in each case.

With `CC(C)c1ccc(S(=O)(=O)N2CCN(C(=O)CCO)CC2C(=O)NCc2ccc(C(F)(F)F)cc2)cc1` (stereo not shown) [Example 58, 4-(3-hydroxy-propionyl)-1-(4-isopropyl-benzenesulfonyl)-piperazine-2-carboxylic acid 4-trifluoromethyl-benzylamide], the half-maximal inhibitory concentration (IC50) in test [1] and in test [2] was more than 1000 nM throughout.

For the compound `CC(C)c1ccc(S(=O)(=O)N2CCN(C(=O)N(C)C)CC2C(=O)NCc2ccc(C(F)(F)F)cc2)cc1` (stereo not shown) [Example 59, 4-(4-isopropyl-benzenesulfonyl)-piperazine-1,3-dicarboxylic acid 1-dimethylamide 3-(4-trifluoromethyl-benzylamide)], the IC50 in test [1] and in test [2] was more than 1000 nM throughout.

With `CCc1ccc(S(=O)(=O)N2CCN(C(C)=O)CC2C(=O)NCc2ccc(C(F)(F)F)cc2)cc1` (stereo not shown) [Example 60, 4-acetyl-1-(4-ethyl-benzenesulfonyl)-piperazine-2-carboxylic acid 4-trifluoromethyl-benzylamide], the IC50 in test [1] and in test [2] was more than 1000 nM in each case.

`CC(=O)N1CCN(S(=O)(=O)c2ccc(I)cc2)C(C(=O)NCc2ccc(C(F)(F)F)cc2)C1` (stereo not shown) [Example 61, 4-acetyl-1-(4-iodo-benzenesulfonyl)-piperazine-2-carboxylic acid 4-trifluoromethyl-benzylamide]: the IC50 in test [1] and in test [2] was more than 1000 nM each time.

As for `CC(=O)N1CCN(S(=O)(=O)c2ccc(-n3cc(Cl)cn3)s2)C(C(=O)NCc2ccc(C(F)(F)F)cc2)C1` (stereo not shown) [Example 62, 4-acetyl-1-[5-(4-chloro-pyrazol-1-yl)-thiophene-2-sulfonyl]-piperazine-2-carboxylic acid 4-trifluoromethyl-benzylamide], the IC50 in test [1] and in test [2] was more than 1000 nM throughout.

Turning to `CC(C)c1ccc(S(=O)(=O)N2CCN(C=O)CC2C(=O)NCc2ccc(C(F)(F)F)cc2)cc1` (stereo not shown) [Example 63, 4-formyl-1-(4-isopropyl-benzenesulfonyl)-piperazine-2-carboxylic acid 4-trifluoromethyl-benzylamide], the half-inhibitory concentration (IC50) in test [1] and in test [2] was more than 1000 nM in each case.

On to `CC(=O)N1CCN(S(=O)(=O)c2ccc(C)cc2)C(C(=O)NCc2ccc(C(F)(F)F)cc2)C1` (stereo not shown) [Example 64, 4-acetyl-1-(toluene-4-sulfonyl)-piperazine-2-carboxylic acid 4-trifluoromethyl-benzylamide], for which the IC50 in test [1] and in test [2] was more than 1000 nM throughout.

On to `CC(=O)N1CCN(S(=O)(=O)c2ccc(OC(F)(F)F)cc2)C(C(=O)NCc2ccc(C(F)(F)F)cc2)C1` (stereo not shown) [Example 65, 4-acetyl-1-(4-trifluoromethoxy-benzenesulfonyl)-piperazine-2-carboxylic acid 4-trifluoromethyl-benzylamide], for which the half-inhibitory concentration (IC50) in test [1] and in test [2] was more than 1000 nM throughout.

For `CC(=O)N1CCN(S(=O)(=O)c2ccc(Oc3cccnc3)cc2)C(C(=O)NCc2ccc(C(F)(F)F)cc2)C1` (stereo not shown) [Example 66, 4-acetyl-1-[4-(pyridin-3-yloxy)-benzenesulfonyl]-piperazine-2-carboxylic acid 4-trifluoromethyl-benzylamide hydrochloride], the half-maximal inhibitory concentration (IC50) in test [1] and in test [2] was more than 1000 nM in each case.

As to `CC(=O)N1CCN(S(=O)(=O)c2ccc(C(C)C)cc2)C(C(=O)NCc2ccccc2F)C1` (stereo not shown) [Example 67, 4-acetyl-1-(4-isopropyl-benzenesulfonyl)-piperazine-2-carboxylic acid 2-fluoro-benzylamide], the IC50 in test [1] and in test [2] was more than 1000 nM each time.

As to `CC(=O)N1CCN(S(=O)(=O)c2ccc(C(C)C)cc2)C(C(=O)NCc2ccc(C(C)(C)C)cc2)C1` (stereo not shown) [Example 68, 4-acetyl-1-(4-isopropyl-benzenesulfonyl)-piperazine-2-carboxylic acid 4-tert-butyl-benzylamide], the IC50 in test [1] and in test [2] was 100 to 1000 nM each time.

For `CC(=O)N1CCN(S(=O)(=O)c2cnc(Cl)c(Br)c2)C(C(=O)NCc2ccc(C(F)(F)F)cc2)C1` (stereo not shown) [Example 69, 4-acetyl-1-(5-bromo-6-chloro-pyridine-3-sulfonyl)-piperazine-2-carboxylic acid 4-trifluoromethyl-benzylamide hydrochloride], the IC50 in test [1] and in test [2] was more than 1000 nM each time.

As to `CC(=O)N1CCN(S(=O)(=O)c2ccc(N3CCOCC3)nc2)C(C(=O)NCc2ccc(C(F)(F)F)cc2)C1` (stereo not shown) [Example 70, 4-acetyl-1-(6-morpholin-4-yl-pyridine-3-sulfonyl)-piperazine-2-carboxylic acid 4-trifluoromethyl-benzylamide hydrochloride], the half-inhibitory concentration (IC50) in test [1] and in test [2] was more than 1000 nM in each case.

With `COc1cccc(S(=O)(=O)N2CCN(C(C)=O)CC2C(=O)NCc2ccc(C(F)(F)F)cc2)c1` (stereo not shown) [Example 71, 4-acetyl-1-(3-methoxy-benzenesulfonyl)-piperazine-2-carboxylic acid 4-trifluoromethyl-benzylamide], the IC50 in test [1] and in test [2] was more than 1000 nM in each case.

Regarding `CCCc1ccc(S(=O)(=O)N2CCN(C(C)=O)CC2C(=O)NCc2ccc(C(F)(F)F)cc2)cc1` (stereo not shown) [Example 72, 4-acetyl-1-(4-propyl-benzenesulfonyl)-piperazine-2-carboxylic acid 4-trifluoromethyl-benzylamide], the results for the IC50 in test [1] and in test [2] were 100 to 1000 nM and more than 1000 nM, respectively.

On to `CC(=O)N1CCN(S(=O)(=O)c2ccc(-c3ccccc3)cc2)C(C(=O)NCc2ccc(C(F)(F)F)cc2)C1` (stereo not shown) [Example 73, 4-acetyl-1-(biphenyl-4-sulfonyl)-piperazine-2-carboxylic acid 4-trifluoromethyl-benzylamide], for which the concentration for half-maximal inhibition (IC50) in test [1] and in test [2] was more than 1000 nM each time.

For `CC(=O)N1CCN(S(=O)(=O)c2cc3ccccc3s2)C(C(=O)NCc2ccc(C(F)(F)F)cc2)C1` (stereo not shown) [Example 74, 4-acetyl-1-(benzo[b]thiophene-2-sulfonyl)-piperazine-2-carboxylic acid 4-trifluoromethyl-benzylamide], the 50% inhibitory concentration (IC50) in test [1] and in test [2] was more than 1000 nM each time.

In the case of `CC(=O)N1CCN(S(=O)(=O)c2ccc(C(C)C)s2)C(C(=O)NCc2ccc(C(F)(F)F)cc2)C1` (stereo not shown) [Example 75, 4-acetyl-1-(5-isopropyl-thiophene-2-sulfonyl)-piperazine-2-carboxylic acid 4-trifluoromethyl-benzylamide], the half-inhibitory concentration (IC50) in test [1] and in test [2] was more than 1000 nM in each case.

With `COC(=O)c1ccc(CNC(=O)C2CN(C(C)=O)CCN2S(=O)(=O)c2ccc(C(C)C)cc2)cc1` (stereo not shown) [Example 76, 4-({[4-acetyl-1-(4-isopropyl-benzenesulfonyl)-piperazine-2-carbonyl]-amino}-methyl)-benzoic acid methyl ester], the IC50 in test [1] and in test [2] was more than 1000 nM throughout.

Consider `CC(=O)N1CCN(S(=O)(=O)c2ccc(C(C)C)cc2)C(C(=O)NCc2ccc([N+](=O)[O-])cc2)C1` (stereo not shown) [Example 77, 4-acetyl-1-(4-isopropyl-benzenesulfonyl)-piperazine-2-carboxylic acid 4-nitro-benzylamide], for which the half-maximal inhibitory concentration (IC50) in test [1] and in test [2] was more than 1000 nM each time.

Turning to `CC(=O)N1CCN(S(=O)(=O)c2ccc(C(C)C)cc2)C(C(=O)NCc2cccc(F)c2)C1` (stereo not shown) [Example 78, 4-acetyl-1-(4-isopropyl-benzenesulfonyl)-piperazine-2-carboxylic acid 3-fluoro-benzylamide], the IC50 in test [1] and in test [2] was more than 1000 nM throughout.

Regarding `CC(=O)N1CCN(S(=O)(=O)c2ccc(C(C)C)cc2)C(C(=O)NCCc2c[nH]c3ccccc23)C1` (stereo not shown) [Example 79, 4-acetyl-1-(4-isopropyl-benzenesulfonyl)-piperazine-2-carboxylic acid [2-(1H-indol-3-yl)-ethyl]-amide], the half-inhibitory concentration (IC50) in test [1] and in test [2] was more than 1000 nM in each case.

For the compound `CC(=O)N1CCN(S(=O)(=O)c2ccc(C(C)C)cc2)C(C(=O)NCc2ccc(N3CCOCC3)cc2)C1` (stereo not shown) [Example 80, 4-acetyl-1-(4-isopropyl-benzenesulfonyl)-piperazine-2-carboxylic acid 4-morpholin-4-yl-benzylamide], the IC50 in test [1] and in test [2] was more than 1000 nM each time.

With `CC(=O)N1CCN(S(=O)(=O)c2ccc(C(C)C)cc2)C(C(=O)NCc2ccc(N3CCN(C)CC3)cc2)C1` (stereo not shown) [Example 81, 4-acetyl-1-(4-isopropyl-benzenesulfonyl)-piperazine-2-carboxylic acid 4-(4-methyl-piperazin-1-yl)-benzylamide], the IC50 in test [1] and in test [2] was more than 1000 nM throughout.
